In ChEMBL document CHEMBL4651402, “Screening of ~5500 FDA-approved drugs and clinical candidates for anti-SARS-CoV-2 activity” (2021):

System: SARS-CoV-2
Experiment: microbe, parasite or virus in culture
Conditions: Severe acute respiratory syndrome coronavirus 2, Vero C1008, 48 h

Row | Structure (SMILES) | IC50 [µM] | IC50 (read-out: pIC50 (converted)) [µM]
1 | Cc1ccn(-c2cc(Cl)ccc2[C@@H](Oc2cc(-c3ccc(C[C@H](N)C(=O)O)cc3)nc(N)n2)C(F)(F)F)n1 [TELOTRISTAT] | > 20 | > 20
2 | CC1CN(c2cc3c(cc2F)c(=O)c(C(=O)O)cn3-c2ccc(F)cc2F)CCN1 (stereo not drawn) [TEMAFLOXACIN] | > 20 | > 20
3 | CN1C(=O)C(O)N=C(c2ccccc2)c2cc(Cl)ccc21 (stereo not drawn) [TEMAZEPAM] | > 20 | > 20
4 | CCOC(=O)[C@H](CCc1ccccc1)N[C@H]1CS[C@H](c2cccs2)CN(CC(=O)O)C1=O [TEMOCAPRIL] | > 20 | > 20
5 | Cn1nnc2c(C(N)=O)ncn2c1=O [TEMOZOLOMIDE] | > 20 | > 20
6 | CC1(C)CC(O)CC(C)(C)N1[O] [TEMPOL] | > 20 | > 20
7 | CO[C@H]1C[C@@H]2CC[C@@H](C)[C@@](O)(O2)C(=O)C(=O)N2CCCC[C@H]2C(=O)O[C@H]([C@H](C)C[C@@H]2CC[C@@H](OC(=O)C(C)(CO)CO)[C@H](OC)C2)CC(=O)[C@H](C)/C=C(\C)[C@@H](O)[C@@H](OC)C(=O)[C@H](C)C[C@H](C)/C=C/C=C/C=C/1C [TEMSIROLIMUS] | > 20 | > 20
8 | COc1ccc2[nH]c([S+]([O-])Cc3ncc(C)c(OC)c3C)nc2n1 (stereo not drawn) [TENATOPRAZOLE] | > 20 | > 20
9 | Cc1cc(N2CCN([C@@H]3CN[C@H](C(=O)N4CCSC4)C3)CC2)n(-c2ccccc2)n1 [TENELIGLIPTIN] | > 20 | > 20
10 | NC(=O)N1C(=O)/C(=C(\O)c2cccs2)c2cc(Cl)ccc21 [TENIDAP] | > 20 | > 20
11 | CN1CCN(C2=Nc3cscc3/C(=C/C#N)c3cscc32)CC1 [TENILAPINE] | > 20 | > 20
12 | COc1cc([C@@H]2c3cc4c(cc3[C@@H](O[C@@H]3O[C@@H]5CO[C@@H](c6cccs6)O[C@H]5[C@H](O)[C@H]3O)[C@H]3COC(=O)[C@H]23)OCO4)cc(OC)c1O [TENIPOSIDE] | > 20 | > 20
13 | CC(C)OC(=O)[C@H](C)N[P@](=O)(CO[C@H](C)Cn1cnc2c(N)ncnc21)Oc1ccccc1 [TENOFOVIR ALAFENAMIDE] | > 20 | > 20
14 | C[C@H](Cn1cnc2c(N)ncnc21)OCP(=O)(O)O [TENOFOVIR ANHYDROUS] | > 20 | > 20
15 | CC(C)OC(=O)OCOP(=O)(CO[C@H](C)Cn1cnc2c(N)ncnc21)OCOC(=O)OC(C)C [TENOFOVIR DISOPROXIL] | > 20 | > 20
16 | CCCCCCCCCCCCCCCCOCCCOP(=O)(O)CO[C@H](C)Cn1cnc2c(N)ncnc21 [TENOFOVIR EXALIDEX] | > 20 | > 20
17 | CN1C(C(=O)Nc2ccccn2)=C(O)c2sccc2S1(=O)=O [TENOXICAM] | > 20 | > 20
18 | COc1ccc(-n2nc(CCC(=O)N(C)O)cc2-c2ccc(Cl)cc2)cc1 [TEPOXALIN] | > 20 | > 20
19 | COc1cc2nc(N3CCN(C(=O)C4CCCO4)CC3)nc(N)c2cc1OC (stereo not drawn) [TERAZOSIN] | > 20 | > 20
20 | CN(C/C=C/C#CC(C)(C)C)Cc1cccc2ccccc12 [TERBINAFINE] | > 20 | > 20

Row | Structure (SMILES) | IC50 [µM] | IC50 (read-out: pIC50 (converted)) [µM]
21 | CC(C)(C)NCC(O)c1cc(O)cc(O)c1 (stereo not drawn) [TERBUTALINE] | > 20 | > 20
22 | C/C(O)=C(\C#N)C(=O)Nc1ccc(C(F)(F)F)cc1 [TERIFLUNOMIDE] | > 20 | > 20
23 | O=C1NOCC1/N=C/c1ccc(/C=N/C2CONC2=O)cc1 (stereo not drawn) [TERIZIDONE] | > 20 | > 20
24 | O=c1n(CC2CO2)c(=O)n(CC2CO2)c(=O)n1CC1CO1 (stereo not drawn) [TEROXIRONE] | > 20 | > 20
25 | CCO[C@@H](Cc1ccc(OCCc2ccc(OS(C)(=O)=O)cc2)cc1)C(=O)O [TESAGLITAZAR] | > 20 | > 20
26 | CCCCNc1ccc(C(=O)OCCN(C)C)cc1 [TETRACAINE] | > 20 | > 20
27 | CN(C)[C@@H]1C(O)=C(C(N)=O)C(=O)[C@@]2(O)C(O)=C3C(=O)c4c(O)cccc4[C@@](C)(O)[C@H]3C[C@@H]12 [TETRACYCLINE] | > 20 | > 20
28 | COc1ccc2c(c1OC)CN1CCc3cc4c(cc3C1C2)OCO4 (stereo not drawn) [TETRAHYDROBERBERINE] | > 20 | > 20
29 | CC1NCCc2c1[nH]c1ccccc21 (stereo not drawn) [TETRAHYDROHARMAN] | > 20 | > 20
30 | O=C1NC(O)CCN1[C@@H]1O[C@H](CO)[C@@H](O)[C@H]1O (stereo partly drawn) [TETRAHYDROURIDINE] | > 20 | > 20
31 | c1ccc2c(c1)CCCC2C1=NCCN1 (stereo not drawn) [TETRAHYDROZOLINE] | > 20 | > 20
32 | O=C1C(O)=C(O)C(=O)C(O)=C1O [TETROQUINONE] | > 20 | > 20
33 | COCCOc1c(OC)cc(Cc2cnc(N)nc2N)cc1OC [TETROXOPRIM] | > 20 | > 20
34 | CNc1c2c(nn1C)CCCC2 [TETRYDAMINE] | > 20 | > 20
35 | Nc1nc(N)c2nc(-c3cccc(O)c3)c(-c3cccc(O)c3)nc2n1 [TG100-115] | > 20 | > 20
36 | O=C1CCC(N2C(=O)c3ccccc3C2=O)C(=O)N1 (stereo not drawn) [THALIDOMIDE] | > 20 | > 20
37 | O=C(O[C@@H]1Cc2c(O)cc(O)cc2O[C@@H]1c1cc(O)c(=O)c2c(O)c(O)cc([C@H]3Oc4cc(O)cc(O)c4C[C@H]3OC(=O)c3cc(O)c(O)c(O)c3)c2c1)c1cc(O)c(O)c(O)c1 [THEAFLAVIN DIGALLATE] | > 20 | > 20
38 | O=C(O[C@@H]1Cc2c(O)cc(O)cc2O[C@@H]1c1cc(O)c(=O)c2c(O)c(O)cc([C@H]3Oc4cc(O)cc(O)c4C[C@H]3O)c2c1)c1cc(O)c(O)c(O)c1 [THEAFLAVIN MONOGALLATES] | > 20 | > 20
39 | O=c1c(O)cc([C@H]2Oc3cc(O)cc(O)c3C[C@H]2O)cc2c([C@H]3Oc4cc(O)cc(O)c4C[C@H]3O)cc(O)c(O)c12 [THEAFLAVIN] | > 20 | > 20
40 | CN1CCC(N(Cc2cccs2)c2ccccc2)CC1 [THENALIDINE] | > 20 | > 20

Row | Structure (SMILES) | IC50 [µM] | IC50 (read-out: pIC50 (converted)) [µM]
41 | Cn1cnc2c1c(=O)[nH]c(=O)n2C [THEOBROMINE] | > 20 | > 20
42 | Cn1c(=O)c2c(ncn2CCOC(=O)C(C)(C)Oc2ccc(Cl)cc2)n(C)c1=O [THEOFIBRATE] | > 20 | > 20
43 | Cn1c(=O)c2nc[nH]c2n(C)c1=O [THEOPHYLLINE] | > 20 | > 20
44 | c1ccc2[nH]c(-c3cscn3)nc2c1 [THIABENDAZOLE] | > 20 | > 20
45 | C=CCC1(C2C=CCCC2)C(=O)NC(=S)NC1=O (stereo not drawn) [THIALBARBITAL] | > 20 | > 20
46 | Cc1ncc(C[n+]2csc(CCO)c2C)c(N)n1 [THIAMINE ION] | > 20 | > 20
47 | Cn1cnc([N+](=O)[O-])c1Sc1nc(N)nc2[nH]cnc12 [THIAMIPRINE] | > 20 | > 20
48 | CS(=O)(=O)c1ccc([C@@H](O)[C@@H](CO)NC(=O)C(Cl)Cl)cc1 [THIAMPHENICOL] | > 20 | > 20
49 | C=CCC1(C(C)CCC)C(=O)NC(=S)NC1=O (stereo not drawn) [THIAMYLAL] | > 20 | > 20
50 | CN(C)CCN1C(=O)CC(c2ccccc2)Sc2ccccc21 (stereo not drawn) [THIAZESIM] | > 20 | > 20
51 | CCSc1ccc2c(c1)N(CCCN1CCN(C)CC1)c1ccccc1S2 [THIETHYLPERAZINE] | > 20 | > 20
52 | COc1c(O[C@@H]2O[C@H](CO)[C@@H](O)[C@H](O)[C@H]2O)cc2c(c1OC)-c1ccc(SC)c(=O)cc1[C@@H](NC(C)=O)CC2 [THIOCOLCHICOSIDE] | > 20 | > 20
53 | NC(=O)CCCCC1CCSS1 (stereo not drawn) [THIOCTIC ACID AMIDE] | > 20 | > 20
54 | Nc1nc2[nH]cnc2c(=S)[nH]1 [THIOGUANINE] | > 20 | > 20
55 | Nc1nc(=S)c2ncn([C@@H]3O[C@H](CO)[C@@H](O)[C@H]3O)c2[nH]1 [THIOGUANOSINE] | > 20 | > 20
56 | CCCC(C)C1(CC)C(=O)NC(=S)NC1=O (stereo not drawn) [THIOPENTAL] | > 20 | > 20
57 | S=C(NC1CCCCC1)N1CCC(c2cnc[nH]2)CC1 [THIOPERAMIDE] | > 20 | > 20
58 | O=C(O)[C@@H]1CSCN1 [THIOPROLINE] | > 20 | > 20
59 | CC(=O)OCCN1CCN(CCCN2c3ccccc3Sc3ccc(Cl)cc32)CC1 [THIOPROPAZATE] | > 20 | > 20
